Data on 23 compounds can be found in patent US20260250251A1, “HETEROCYCLIC COMPOUNDS AS PI3Ka INHIBITORS” (Pikavation Therapeutics, Inc., priority 2022, published 2026).

A value given as a limit tells only on which side of the number the result lay.

Test [1] has as its system SKBR3 (PIK3CA WT) cells, pSer473 AKT. Description: pS473 AKT assay in SKBR3 cells. It counts as cell-based. The following applies: Homo sapiens, SK-BR-3, treated 2 h, read-out: SKBR3_IC50. The method, then:
(§1) SKBR3 (PIK3CA WT), MCF7 (PIK3CA E545K), and T47D (PIK3CA H1047R) cells were cultured using 10-cm petri dishes with recommended medium. One day before the assay, cells were seeded in 96-well plates. After overnight incubation, cells were treated with different concentrations of PI3Kα inhibitors for 2 h. Cells were then fixed using 4% paraformaldehyde at room temperature for 20 min. Cells were aspirated with 4% paraformaldehyde, and washed using 1× regular phosphate buffered saline 3 times, 5 min each. Any residual phosphate buffered saline was aspirated and cells were blocked using 10% goat serum containing 1% bovine serum albumin and 0.3% Triton X-100 at room temperature for 1 h. Without any additional washing, primary antibodies (rabbit anti-pSer473 AKT) were diluted using blocking buffer and added at a final volume of 50 microliter per well. Assay plates with primary antibodies were maintained overnight at 4° C. Cells were washed using 1× regular phosphate buffered saline 3 times, 5 min each. After the final wash, cells were incubated with horseradish peroxidase-conjugated secondary antibodies (goat Anti-rabbit IgG) and diluted using the same blocking buffer at room temperature for 1 h. Cells were then washed thoroughly using 1× regular phosphate buffered saline 3 times, 5 min each, and any residual phosphate buffered saline was aspirated. Super-Signal ELISA Pico Chemiluminescent Substrate was then added at a final volume of 100 microliter per well. Plates were read on a i3x Multi-Mode Microplate Reader and IC50 values calculated using GraphPad Prism software.
(§2) Results of the assay described above are presented in Table A. “++++” indicates an IC50 less than 1000 nM; “+++” indicates an IC50 greater than or equal to 1000 nM but less than 5000 nM; “++” indicates an IC50 greater than or equal to 5000 nM but less than 10000 nM; and “+” indicates an IC50 greater than or equal to 10000 nM.

Test [2] relates to T47D (PIK3CA H1047R) cells, pSer473 AKT. Kind of test: pS473 AKT assay in T47D cells. The format is cell-based. Particulars: Homo sapiens, treated 2 h, read-out: T47D_IC50. As to the method: as §1, §2

Take `Cn1nc(N)c2c(Oc3cc(F)ccc3Cl)c(NC(=O)c3cc(F)cc(C(F)(F)F)c3)cc(C#CC3CC3)c21` [Example 42, N-(3-Amino-4-(2-chloro-5-fluorophenoxy)-7-(cyclopropylethynyl)-1-methyl-1H-indazol-5-yl)-3-fluoro-5-(trifluoromethyl)benzamide]: the IC50 in test [1] was 1 to 5 µM; in test [2] it was < 1 µM.

`CC(=O)n1nc(N)c2c(Oc3cc(F)ccc3Cl)c(NC(=O)c3cc(F)cc(C(F)(F)F)c3)cc(Br)c21` [Example 82, N-(1-Acetyl-3-amino-7-bromo-4-(2-chloro-5-fluorophenoxy)-1H-indazol-5-yl)-3-fluoro-5-(trifluoromethyl)benzamide]: the IC50 in test [1] is 1 to 5 µM; in test [2], < 1 µM.

Regarding `Cn1nc(N)c2c(Oc3cc(F)ccc3Cl)c(NC(=O)c3cc(F)cc(C(F)(F)F)c3)cc(C#Cc3ccccn3)c21` [Example 37, N-(3-Amino-4-(2-chloro-5-fluorophenoxy)-1-methyl-7-(pyridin-2-ylethynyl)-1H-indazol-5-yl)-3-fluoro-5-(trifluoromethyl)benzamide], the IC50 in test [1] is 1 to 5 µM; in test [2], < 1 µM.

As for `Cn1nc(NC(=O)CN)c2c(Oc3cc(F)ccc3Cl)c(NC(=O)c3cc(F)cc(C(F)(F)F)c3)cc(Cl)c21` [Example 35, N-(3-(2-Aminoacetamido)-7-chloro-4-(2-chloro-5-fluorophenoxy)-1-methyl-1H-indazol-5-yl)-3-fluoro-5-(trifluoromethyl)benzamide], the IC50 was 1 to 5 µM in test [1] and < 1 µM in test [2].

With `Nc1nn2c3c(cc(NC(=O)c4cc(F)cc(C(F)(F)F)c4)c(Oc4cc(F)ccc4Cl)c13)-c1ccccc1C2` [Example 70, N-(4-Amino-3-(2-chloro-5-fluorophenoxy)-7H-pyrazolo[4,5,1-de]phenanthridin-2-yl)-3-fluoro-5-(trifluoromethyl)benzamide], the IC50 in test [1] was ≥ 10 µM; in test [2] it was < 1 µM.

Consider `Nc1n[nH]c2c(-c3ccccc3)cc(NC(=O)c3cc(F)cc(C(F)(F)F)c3)c(Oc3cc(F)ccc3Cl)c12` [Example 17, N-(3-Amino-4-(2-chloro-5-fluorophenoxy)-7-phenyl-1H-indazol-5-yl)-3-fluoro-5-(trifluoromethyl)benzamide], for which the IC50 in test [1] is 1 to 5 µM; in test [2], < 1 µM.

Consider `CC(=O)N1CCC(C#Cc2cc(NC(=O)c3cc(F)cc(C(F)(F)F)c3)c(Oc3cc(F)ccc3Cl)c3c(N)nn(C)c23)CC1` [Example 52, N-(7-((1-Acetylpiperidin-4-yl)ethynyl)-3-amino-4-(2-chloro-5-fluorophenoxy)-1-methyl-1H-indazol-5-yl)-3-fluoro-5-(trifluoromethyl)benzamide], for which the IC50 in test [1] was 1 to 5 µM; in test [2], < 1 µM.

As to `Nc1nn(CC(=O)N2CCOCC2)c2ccc(NC(=O)c3cc(F)cc(C(F)(F)F)c3)c(Oc3cc(F)ccc3Cl)c12` [Example 10, N-(3-Amino-4-(2-chloro-5-fluorophenoxy)-1-(2-morpholino-2-oxoethyl)-1H-indazol-5-yl)-3-fluoro-5-(trifluoromethyl)benzamide], the IC50 is 1 to 5 µM in test [1] and < 1 µM in test [2].

Turning to `Nc1nn2c(=O)c3c(c4cc(NC(=O)c5cc(F)cc(C(F)(F)F)c5)c(Oc5cc(F)ccc5Cl)c1c42)CCCC3` [Example 75, N-(4-Amino-3-(2-chloro-5-fluorophenoxy)-7-oxo-8,9,10,11-tetrahydro-7H-pyrazolo[4,5,1-de]phenanthridin-2-yl)-3-fluoro-5-(trifluoromethyl)benzamide], the IC50 in test [1] and in test [2] was < 1 µM in each case.

Regarding `Cn1nc(N)c2c(Oc3cc(F)ccc3Cl)c(NC(=O)c3cc(F)cc(C(F)(F)F)c3)cc(CCC#N)c21` [Example 59, N-(3-Amino-4-(2-chloro-5-fluorophenoxy)-7-(2-cyanoethyl)-1-methyl-1H-indazol-5-yl)-3-fluoro-5-(trifluoromethyl)benzamide], the IC50 in test [1] and in test [2] was < 1 µM in each case.

For the compound `N#CCCn1nc(N)c2c(Oc3cc(F)ccc3Cl)c(NC(=O)c3cc(F)cc(C(F)(F)F)c3)cc(Cl)c21` [Example 34, N-(3-Amino-7-chloro-4-(2-chloro-5-fluorophenoxy)-1-(2-cyanoethyl)-1H-indazol-5-yl)-3-fluoro-5-(trifluoromethyl)benzamide], the IC50 in test [1] is 1 to 5 µM; in test [2], < 1 µM.

In the case of `Nc1n[nH]c2ccc(NC(=O)c3cc(F)cc(C(F)(F)F)c3)c(COc3cc(F)ccc3Cl)c12` [Example 6, N-(3-amino-4-((2-chloro-5-fluorophenoxy)methyl)-1H-indazol-5-yl)-3-fluoro-5-(trifluoromethyl)benzamide], the results for the IC50 in test [1] and in test [2] were ≥ 10 µM and 1 to 5 µM, respectively.

`Nc1n[nH]c2c(CN3CCOCC3)cc(NC(=O)c3cc(F)cc(C(F)(F)F)c3)c(Oc3cc(F)ccc3Cl)c12` [Example 21, N-(3-Amino-4-(2-chloro-5-fluorophenoxy)-7-(morpholinomethyl)-1H-indazol-5-yl)-3-fluoro-5-(trifluoromethyl)benzamide]: the IC50 in test [1] and in test [2] was < 1 µM in each case.

As to `Cn1nccc1-c1cc(NC(=O)c2cc(F)cc(C(F)(F)F)c2)c(Oc2cc(F)ccc2Cl)c2c(N)n[nH]c12` [Example 15, N-(3-Amino-4-(2-chloro-5-fluorophenoxy)-7-(1-methyl-1H-pyrazol-5-yl)-1H-indazol-5-yl)-3-fluoro-5-(trifluoromethyl)benzamide], the IC50 in test [1] and in test [2] was < 1 µM each time.

With `Cn1nc(N)c2c(Oc3cc(F)ccc3Cl)c(NC(=O)c3cc(F)cc(C(F)(F)F)c3)cc(Br)c21` [Example 25, N-(3-Amino-7-bromo-4-(2-chloro-5-fluorophenoxy)-1-methyl-1H-indazol-5-yl)-3-fluoro-5-(trifluoromethyl)benzamide], the IC50 in test [1] and in test [2] was < 1 µM each time.

Take `CNc1n[nH]c2ccc(NC(=O)c3cc(F)cc(C(F)(F)F)c3)c(Oc3cc(F)ccc3Cl)c12` [Example 2, N-(4-(2-Chloro-5-fluorophenoxy)-3-(methylamino)-1H-indazol-5-yl)-3-fluoro-5-(trifluoromethyl)benzamide]: the IC50 in test [1] was 1 to 5 µM; in test [2], < 1 µM.

Take `Nc1n[nH]c2ccc(NC(=O)c3csc4ccccc34)c(Oc3cc(F)ccc3Cl)c12` [Example 18, N-(3-Amino-4-(2-chloro-5-fluorophenoxy)-1H-indazol-5-yl)benzo[b]thiophene-3-carboxamide]: the IC50 in test [1] and in test [2] was < 1 µM each time.

As to `Nc1nnc2ccc(NC(=O)c3cc(F)cc(C(F)(F)F)c3)c(Oc3cc(F)ccc3Cl)n12` [Example 20, N-(3-Amino-5-(2-chloro-5-fluorophenoxy)-[1,2,4]triazolo[4,3-a]pyridin-6-yl)-3-fluoro-5-(trifluoromethyl)benzamide], the IC50 in test [1] is 1 to 5 µM; in test [2], < 1 µM.

Take `Cn1nc(N)c2c(Oc3cc(F)ccc3Cl)c(NC(=O)c3cc(F)cc(C(F)(F)F)c3)cc(C#CC(C)(C)O)c21` [Example 39, N-(3-Amino-4-(2-chloro-5-fluorophenoxy)-7-(3-hydroxy-3-methylbut-1-yn-1-yl)-1-methyl-1H-indazol-5-yl)-3-fluoro-5-(trifluoromethyl)benzamide]: the IC50 in test [1] is 1 to 5 µM; in test [2] it was < 1 µM.

In the case of `Cn1nc(N)c2c(Oc3cc(F)ccc3Cl)c(NC(=O)c3cc(F)cc(C(F)(F)F)c3)cc(C#CC3(O)CC3)c21` [Example 43, N-(3-Amino-4-(2-chloro-5-fluorophenoxy)-7-((1-hydroxycyclopropyl)ethynyl)-1-methyl-1H-indazol-5-yl)-3-fluoro-5-(trifluoromethyl)benzamide], the IC50 in test [1] and in test [2] was < 1 µM in each case.

For `Cn1cc(-c2cc(NC(=O)c3cc(F)cc(C(F)(F)F)c3)c(Oc3cc(F)ccc3Cl)c3c(N)n[nH]c23)cn1` [Example 14, N-(3-Amino-4-(2-chloro-5-fluorophenoxy)-7-(1-methyl-1H-pyrazol-4-yl)-1H-indazol-5-yl)-3-fluoro-5-(trifluoromethyl)benzamide], the IC50 was 1 to 5 µM in test [1] and < 1 µM in test [2].

Regarding `Cn1nc(N)c2c(Oc3cc(F)ccc3Cl)c(NC(=O)c3cc(F)cc(C(F)(F)F)c3)cc(-c3ccc(C(N)=O)cc3)c21` [Example 27, N-(3-Amino-7-(4-carbamoylphenyl)-4-(2-chloro-5-fluorophenoxy)-1-methyl-1H-indazol-5-yl)-3-fluoro-5-(trifluoromethyl)benzamide], the IC50 is 1 to 5 µM in test [1] and < 1 µM in test [2].

As for `Cn1nc(N)c2c(Oc3cc(F)ccc3Cl)c(NC(=O)c3cc(F)cc(C(F)(F)F)c3)cc(/C=C/C#N)c21` [Example 57, (E)-N-(3-amino-4-(2-chloro-5-fluorophenoxy)-7-(2-cyanovinyl)-1-methyl-1H-indazol-5-yl)-3-fluoro-5-(trifluoromethyl)benzamide], the IC50 in test [1] and in test [2] was < 1 µM each time.
